Test results published in patent publication US5958885A, “Peptide and formulations thereof inhibiting elevations of triglyceride levels in blood” (Hankyu Kyoei Bussan Co., Ltd., priority 1996, dated 1999).
Residues, ends and D or L forms follow the SMILES beside them.

Columns and labels:
[1] = tested on: serum TG levels; assay: Serum TG elevation inhibiting action, peptide given 1 hr after olive oil; assay type: in vivo, male ICR mice; conditions: for ID50 (dose which inhibits in vivo 50% of serum TG elevations): olive oil 18 g/kg oral, peptide oral 1 hr later, serum TG another 1 hr later; for Specific Activity (ratio to mg protein): relative to globin proteolysate (GD) = 1, Table 3
Description: Subsequently, serum TG elevation inhibiting action was examined as described below on the peptide (VVYP) having the amino acid sequence shown in SEQ ID NO: 1 synthesized in Example 2, peptides Val-Tyr-Pro (vYP) and Val-Thr-Leu (VTL) synthesized in the same manner as described in Example 2, and the globin proteolysate (GD) obtained in the Reference Example.
Olive oil (18 g/kg body weight) was administered orally to male ICR mice (6 week old, body weight: 25-28 g) which fasted for an overnight. One hour thereafter, an aqueous solution of the above peptide (0.3 ml/mouse) was administered orally. […] A dose-response curve was obtained from the dose of the peptide and inhibition rate of TG, and the 50% inhibition dose ID50 was calculated. Then, the activity of individual peptides was compared with each other.

[2] = tested on: pepsin (artificial gastric juice); assay: In vitro stability against digestive enzymes, artificial gastric juice; assay type: in vitro ADME; conditions: for Ratio of recovery: after pepsin in 0.1 N HCl, 37° C., 4 hr, HPLC peak area, before treatment = 100
Description: (§1) In vitro stability test against digestive enzymes was conducted on the peptide (VVYP) having the amino acid sequence shown in SEQ ID NO: 1 synthesized in Example 2 and peptides Val-Tyr-Pro (VYP) and Val-Thr-Leu (VTL) synthesized in the same manner as described in Example 2.
(§2) Briefly, to 127.5 ml of 0.1 N HCl solution of the above VVYP, VYP or VTL, 22.5 ml of 0.67 mg/ml pepsin (artificial gastric juice) dissolved in 0.1 N HCl was added and reacted at 37° C. for 4 hr. Thereafter, 75 ml of 0.53 mg/ml pancreatin (artificial pancreatic juice) dissolved in […] of 0.5 N borate buffer (pH 8.0) was added thereto and reacted at 37° C. for 2 hr. Samples before digestion with artificial gastric juice, after digestion with artificial gastric juice, and after digestion with artificial pancreatic juice were analyzed under the following conditions.
(§3) Equipment used: HPLC (Waters; LC Modulel)
(§4) Column: SuperPac Pep-S, 5 μm (PHARMACIA K.K.)
(§5) Mobile phase A: 0.1% trifluoroacetic acid B: Acetonitrile-water (50:50, containing 0.1% tri-fluoroacetic acid)
(§6) Flow rate: 0.8 ml/min (VYP, VTL), 0.4 ml/min (VVYP)
(§7) Detection wavelength: 220 nm
(§8) Temperature: room temperature
(§9) Amount applied: 20 μl of 50-fold dilution

[3] = tested on: pancreatin (artificial pancreatic juice); assay: In vitro stability against digestive enzymes, artificial gastric juice then artificial pancreatic juice; assay type: in vitro ADME; conditions: for HPLC peak of the peptide after digestion: after digestion with artificial gastric and pancreatic juices; for Ratio of recovery: after pepsin 37° C. 4 hr, then pancreatin pH 8.0, 37° C., 2 hr, HPLC peak area, before treatment = 100
Description: as §1, §2, §3, §4, §5, §6, §7, §8, §9

[4] = tested on: male and female ICR mice; assay: Toxicological study, oral administration; assay type: in vivo; conditions: 10 g/kg body weight or more (maximum possible dose)
Description: The peptide (VVYP) having the amino acid sequence shown in SEQ ID NO: 1 synthesized in Example 2 was administered orally to male and female ICR mice in an amount of 10 g/kg body weight or more (maximum possible dose).

| Structure (SMILES) | ID50 (dose which inhibits in vivo 50% of serum TG elevations) [1] | Specific Activity (ratio to mg protein) [1] | HPLC peak of the peptide after digestion ([2]; after digestion with artificial gastric juice) | Ratio of recovery [2] | HPLC peak of the peptide after digestion [3] | Ratio of recovery [3] | Death [4] |
| --- | --- | --- | --- | --- | --- | --- | --- |
| CC(C)C[C@H](NC(=O)[C@@H](NC(=O)[C@@H](N)C(C)C)[C@@H](C)O)C(=O)O [VTL, Val-Thr-Leu] (H-Val-Thr-Leu-OH) | 0.05 mg protein/mouse | 448 | disappeared | – | – | – | – |
| CC(C)[C@H](N)C(=O)N[C@H](C(=O)N[C@@H](Cc1ccc(O)cc1)C(=O)N1CCC[C@H]1C(=O)O)C(C)C [VVYP, Val-Val-Tyr-Pro] (H-VVYP-OH) | – | 6500 | – | 108 | remained | 101 | no death occurred |
| CC(C)[C@H](N)C(=O)N[C@@H](Cc1ccc(O)cc1)C(=O)N1CCC[C@H]1C(=O)O [VYP, Val-Tyr-Pro] (H-Val-Tyr-Pro-OH) | 0.02 mg protein/mouse | 1130 | – | 108 | remained | 109 | – |
